Measured values: patent US5935952A, “Quinolone- or naphthylidone-carboxylic acid derivates or their salts” (Toyama Chemical Co., LTD., priority 1994, dated 1999)
Converted amounts (≈) assume the structure as drawn. Read-outs that look alike come from different tables or passages of the source.

What was measured:
Type in all cases: cell-based
[1] = system: S. aureus F-597; assay: Antibacterial activity (MIC, agar dilution, standard method of Japan Society of Chemotherapy) against S. aureus F-597**; details: Staphylococcus aureus; S. aureus F-597, MRSA (methicillin-resistant S. aureus); Mueller Hinton agar, 37° C., 20 hours, 10^6 cells/plate
Text: (§1) According to the standard method of Japan Society of Chemotherapy [CHEMOTHERAPY, vol.
**: MRSA (methicillin-resistant S. aureus)

[2] = system: E. coli NIHJ JC-2; assay: Antibacterial activity (MIC, agar dilution, standard method of Japan Society of Chemotherapy) against E. coli NIHJ JC-2; details: Escherichia coli
Text: as §1

[3] = system: S. aureus FDA 209P; assay: Antibacterial activity (MIC, agar dilution, standard method of Japan Society of Chemotherapy) against S. aureus FDA 209P; details: Staphylococcus aureus, FDA209P
Text: as §1

[4] = system: S. aureus F-137; assay: Antibacterial activity (MIC, agar dilution, standard method of Japan Society of Chemotherapy) against S. aureus F-137*; details: Staphylococcus aureus, F137; S. aureus F-137, β-lactamase-producing bacteria; Mueller Hinton agar, 37° C., 20 hours, 10^6 cells/plate
Text: as §1
*: β-lactamase-producing bacteria

Row | MIC [1] [µg/mL] | MIC ([2]; NIHJJC2, E. coli NIHJ JC-2, Mueller Hinton agar, 37° C., 20 hours, 10^6 cells/plate, read-out: MIC) [µg/mL] | MIC ([3]; S. aureus FDA 209P, Mueller Hinton agar, 37° C., 20 hours, 10^6 cells/plate, read-out: MIC) [µg/mL] | MIC [4] [µg/mL] | Structure (SMILES) | MIC ([2]; NIHJJC2, 20 h) [µg/mL] | MIC ([3]; 20 h) [µg/mL]
1 | ≤ 0.05 | ≤ 0.05 | ≤ 0.05 | ≤ 0.05 | Cc1c(-c2ccc3c(c2)CNC3)c(F)cc2c(=O)c(C(=O)O)cn(C3CC3)c12 [Compound A, 1-cyclopropyl-6-fluoro-7-(isoindolin-5-yl)-8-methyl-1,4-dihydro-4-oxoquinoline-3-carboxylic acid] |  | 
2 |  |  |  |  | O=C(O)c1cn(C2CC2)c2cc(N3CCNCC3)c(F)cc2c1=O [Compound B, 1-cyclopropyl-6-fluoro-7-(1-piperazinyl)-1,4-dihydro-4-oxoquinoline-3-carboxylic acid, reference compound] | ≤ 0.05 | 0.2 (≈ 0.604 µM)
